Activity calls are given as the source filed them. The rule behind the calls is not given here.
Target: Cyclin-dependent kinase 2 (Homo sapiens) (UniProt P24941)
Assay: Effect on wild type recombinant CDK2/cyclin E1 assessed as p27kip1 phosphorylation after 1 hr by immunoblot analysis

Structure (SMILES) | Activity
C=CCNP(=O)(O)OP(=O)(O)OP(=O)(O)OC[C@H]1O[C@@H](n2cnc3c(N)ncnc32)[C@H](O)[C@@H]1O | Active
[N-]=[N+]=Nc1ccc(NP(=O)(O)OP(=O)(O)OP(=O)(O)OC[C@H]2O[C@@H](n3cnc4c(N)ncnc43)[C@H](O)[C@@H]2O)cc1 | Active
[N-]=[N+]=NCCCCCCNP(=O)(O)OP(=O)(O)OP(=O)(O)OC[C@H]1O[C@@H](n2cnc3c(N)ncnc32)[C@H](O)[C@@H]1O | Active
C#CCNP(=O)(O)OP(=O)(O)OP(=O)(O)OC[C@H]1O[C@@H](n2cnc3c(N)ncnc32)[C@H](O)[C@@H]1O | Active
[N-]=[N+]=NCCOCCOCCOCCNP(=O)(O)OP(=O)(O)OP(=O)(O)OC[C@H]1O[C@@H](n2cnc3c(N)ncnc32)[C@H](O)[C@@H]1O | Active

Now from value to molecule:

Activity | Structure (SMILES)
Active | C#CCCNP(=O)(O)OP(=O)(O)OP(=O)(O)OC[C@H]1O[C@@H](n2cnc3c(N)ncnc32)[C@H](O)[C@@H]1O
Active | C#CCCCNP(=O)(O)OP(=O)(O)OP(=O)(O)OC[C@H]1O[C@@H](n2cnc3c(N)ncnc32)[C@H](O)[C@@H]1O
Active | [N-]=[N+]=NCCOP(=O)(O)OP(=O)(O)OP(=O)(O)OC[C@H]1O[C@@H](n2cnc3c(N)ncnc32)[C@H](O)[C@@H]1O
Active | C#CCCCOP(=O)(O)OP(=O)(O)OP(=O)(O)OC[C@H]1O[C@@H](n2cnc3c(N)ncnc32)[C@H](O)[C@@H]1O

From ChEMBL document CHEMBL1153613, “Synthesis and reactivity of novel gamma-phosphate modified ATP analogues” (Bioorg Med Chem Lett, 2009)
